{"source": "patent US7285569B2", "about": "“Tricycles, their manufacture and use as pharmaceutical agents” (Hoff Hoffmann-La Roche Inc., priority 2004, dated 2007)", "key": {"Aurora A": {"molecular_target": "T1, Aurora A (Homo sapiens, UniProt O14965)", "T1 construct": "C-terminally Histidine4 (His4)-tagged Aurora A full-length protein", "T1 sequence (O14965 1-403)": "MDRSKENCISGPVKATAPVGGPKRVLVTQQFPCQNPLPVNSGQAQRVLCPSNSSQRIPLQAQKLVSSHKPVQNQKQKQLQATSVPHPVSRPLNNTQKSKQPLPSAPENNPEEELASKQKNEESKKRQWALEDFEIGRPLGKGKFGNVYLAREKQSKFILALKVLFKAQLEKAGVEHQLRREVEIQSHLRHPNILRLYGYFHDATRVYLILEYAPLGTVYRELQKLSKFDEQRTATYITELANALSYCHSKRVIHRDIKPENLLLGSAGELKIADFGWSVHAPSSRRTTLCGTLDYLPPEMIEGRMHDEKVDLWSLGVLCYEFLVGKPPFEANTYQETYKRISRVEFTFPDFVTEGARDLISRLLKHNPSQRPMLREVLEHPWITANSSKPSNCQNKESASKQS", "assay": "IC50 determination for inhibitors of Aurora A (96 MTP-ELISA)", "type": "biochemical", "conditions": "His4-tagged full-length Aurora A 250 ng/ml, PKB-GSK2 200 nM, ATP 4 μM, 90 min at room temperature; read-out: IC50 Aurora A kinase inhibition", "source_text": "IC50 Determination for Inhibitors of Aurora A\nAurora A is a serine threonine kinase involved in spindle assembly and chromosome segregation.\nThe assay is a typically ELISA-type assay where biotinylated substrate (PKB-GSK2) is phosphorylated. Phosphorylation is detected by peroxidase (POD) labelled polyclonal antibody (PAK<M-Ig>S-IgG-POD) and phosphopeptide monoclonal antibody (Mab) (MAK<P-GSK>M-27E5-IgG). The assay is validated for IC50-determination.\nAurora A-His-4 C-terminally Histidine4 (His4)-tagged Aurora A full-length protein, stock solution 0.7 mg/ml, final conc.: 250 ng/ml\nPKB-GSK2 biotinylated peptide derived from human GSK3-alpha sequence (Biotin-SGRARTSSFAEPGG-CONH2), stock solution 600 μM, final conc.: 200 nM\nATP Adenosine-5′-triphosphate 1 mM, diluted in kinase buffer, (Roche Diagnostics GmbH, Cat. No.: 127531-001,), final conc.: 4 μM\nKinase buffer 50 mM TRIS, 10 mM MgCl2, 1 mM DTT, 0.1% Tween 20, pH 7.8\nThis assay is performed in 96-well format for IC50 determination with 5 samples (each with 8 concentrations by twofold testing), 100 μl incubation volume and the following plate layout:\nStep/Action 1. Sample preparation: add 24 μl per well samples (descending sequence) diluted in kinase buffer to assay plate (final conc. for DMSO 1%). 2. Add directly 16 μl Aurora-A-his-4 diluted in kinase buffer to assay plate. 3. Add directly 40 μl per well PKB-GSK2/ATP mixture to assay plate, (final conc.: Aurora A=250 ng/ml, GSK2=200 nM, ATP=4 μM). Negative control: without ATP. 4. Incubate assay plate for exactly 90 min at room temperature. 5. Stop reaction by adding 20 μl EDTA in all wells. 6. Wash assay plate 3× with 200 μl washing buffer per well. 7. Add 100 μl MAK<P-GSK>M27E5-IgG (1:10000) and PAK<M-Ig>S-IgG-POD (1:6000) dissolved in 3% BSA/PBS-T to assay plate per well. 8. Incubate assay plate for 60 min at room temperature. 9. Wash assay plate 3× with 200 μl washing buffer per well 10. Add 100 μl ABTS solution to assay plate per well, incubate for approx. 4 min at RT on MTP shaker. 11. Measure absorption at 405/492 nm. 12. Calculate % inhibition as: (1−(Esample−ENC)/(EPC−ENC))×100 13. Calculate IC50 using a non-linear curve fit (XLfit software (ID Business Solution Ltd., Guilford, Surrey, UK))"}, "HCT 116 cells": {"system": "HCT 116 cells", "assay": "CellTiter-Glo assay in HCT 116 cells (antiproliferative activity)", "type": "cell-based", "conditions": "HCT 116 human colon carcinoma cells, 5 days (120 h) incubation, CellTiter-Glo luminescence", "source_text": "Antiproliferative Activity\nCellTiter-Glo™ Assay in HCT 116 Cells\nThe CellTiter-Glo™ Luminescent Cell Viability Assay (Promega) is a homogeneous method of determining the number of viable cells in culture based on quantitation of the ATP present, which signals the presence of metabolically active cells.\nHCT 116 cells (human colon carcinoma, ATCC-No. CCI-247) were cultivated in RPMI 1640 medium with GlutaMAX™ I (Invitrogen, Cat-No. 61870-010), 2.5% Fetal Calf Serum (FCS, Sigma Cat-No. F4135 (FBS)); 100 Units/ml penicillin/100 μg/ml streptomycin (=Pen/Strep from Invitrogen Cat. No. 15140). For the assay the cells were seeded in 384 well plates, 1000 cells per well, in the same medium. The next day the test compounds were added in various concentrations ranging from 30 μM to 0.0015 μM (10 concentrations, 1:3 diluted). After 5 days the CellTiter-Glo™ assay was done according to the instructions of the manufacturer (CellTiter-Glo™ Luminescent Cell Viability Assay, from Promega). In brief: the cell-plate was equilibrated to room temperature for approximately 30 minutes and than the CellTiter-Glo™ reagent was added. The contents were carefully mixed for 15 minutes to induce cell lysis. After 45 minutes the luminescent signal was measured in Victor 2, (scanning multiwell spectrophotometer, Wallac).\nMedium: RPMI 1640 with GlutaMAX™ I (Invitrogen, Cat-Nr. 61870), 5% FCS (Sigma Cat.-No. F4135), Pen/Strep (Invitrogen, Cat No. 15140).\nHCT116 (ATCC-No. CCI-247): 1000 cells in 60 μl per well of 384 well plate (Greiner 781098, μClear-plate white)\nAfter seeding incubate plates 24 h at 37° C., 5% CO2\n2nd. Day: Induction (Treatment with Compounds, 10 Concentrations):\nIn order to achieve a final concentration of 30 μM as highest concentration 3.5 μl of 10 mM compound stock solution were added directly to 163 μl media. Then step e) of the dilution procedure described below, was followed.\nIn order to achieve the second highest to the lowest concentrations, a serial dilution with dilution steps of 1:3 was followed according to the procedure (a-e) as described here below: • for the second highest concentration add 10 μl of 10 mM stock solution of compound to 20 μl dimethylsulfoxide (DMSO) • dilute 8×1:3 (always 10 μl to 20 μl DMSO) in this DMSO dilution row (results in 9 wells with concentrations from 3333.3 μM to 0.51 μM) • dilute each concentration 1:47.6 (3.5 μl compound dilution to 163 μl media) • add 10 μl of every concentration to 60 μl media in the cell plate resulting in final concentration of DMSO: 0.3% in every well and resulting in 10 final concentration of compounds ranging from 30 μM to 0.0015 μM. • Each compound is tested in triplicate. • Incubate 120 h (5 days) at 37° C., 5% CO2 Analysis:\nAdd 30 μl CellTiter-Glo™ Reagent (prepared from CellTiter-Glo™ Buffer and CellTiter-Glo™ Substrate (lyophilized) purchased from Promega) per well, • shake 15 minutes at room temperature • incubate further 45 minutes at room temperature without shaking Measurement:\nVictor 2 scanning multiwell spectrophotometer (Wallac), Luminescence mode (0.5 sec/read, 477 nm)\nDetermine IC50 using a non-linear curve fit (XLfit software (ID Business Solution Ltd., Guilford, Surrey, UK))"}}}
{"smiles": "CCCc1cc(-c2nc3cc4c(cc3[nH]2)N(CCC)C(=O)C4(C)C)[nH]n1", "note": "[Example 37, 7,7-Dimethyl-5-propyl-2-(5-propyl-2H-pyrazol-3-yl)-5,7-dihydro-3H-imidazo[4,5-f]indol-6-one]", "values": [{"measurement": "IC50", "setting": "Aurora A", "result": "10 to 500", "unit": "nM"}, {"measurement": "IC50", "setting": "HCT 116 cells", "result": "100 to 10000", "unit": "nM"}]}
{"smiles": "CCCN1C(=O)C(C)(C)c2cc3[nH]c(-c4cc(C(F)(F)F)n[nH]4)nc3cc21", "note": "[Example 41, 7,7-Dimethyl-5-propyl-2-(5-trifluoromethyl-2H-pyrazol-3-yl)-5,7-dihydro-1H-imidazo[4,5-f]indol-6-one]", "values": [{"measurement": "IC50", "setting": "Aurora A", "result": "500 to 1500", "unit": "nM"}, {"measurement": "IC50", "setting": "HCT 116 cells", "result": "100 to 10000", "unit": "nM"}]}
